Test results from paper PMC9096165 (Frontiers in Pharmacology, 2022).

Tests used:
TRPV1 [1] = experiment: TRPV1 protein level in F11 cells (Western blotting); format: cell-based; details: DF2755A 1 µM + CYP 100 nM
Description: For these experiments, cells at 18th passage were used.
Triplicate samples were run for each gene.
Control and treated F11 cells were collected and lysed in an ice-cold RIPA buffer containing protease and phosphatase inhibitor cocktail (Sigma-Aldrich, United States). The extracted proteins were quantified using BCA assay (Thermo, United States). NuPAGE lithium dodecyl sulfate sample buffer (Cat#NP007, Thermo, United States) and NuPAGE sample reducing agent (Cat#NP0004, Thermo, United States) were added to the samples and then put in the Thermoblock (Eppendorf, United Kingdom) at 75°C for 10 min. Protein lysates (30 μg) were separated on NuPAGE bis–tris glycine gradient precast gel (Cat#NP0321PK2, Invitrogen, United States) and electroblotted on a PVDF membrane (Cat#IPVH00010, Millipore, United States) using a semi-dry system (Thermo, United States). Non-specific binding sites were blocked by blocking solution (Cat#000105, Invitrogen, United States) for 15 min at RT. […] The relative densities of the immunoreactive bands were determined and normalized with respect to actin, using Fiji software. […]

CXCR1 = tested on: CXCR1; set-up: method as in Lopes et al., 2016; details: ref Lopes et al., 2016; cited from earlier work
[2] = Routes and rates of excretion after single oral [14C]DF2755A; format: in vivo; details: single oral 20 mg/kg, female SD rats
Protocol: Prior to administration and for acclimatization, animals (n = 6) were transferred to individual metabolic cages and were left therein for the duration of the study except for a short period during dosing. The metabolic cages were specifically designed for the separate collection of urine and feces. The preparation of dose formulation was performed on the day of experiment. The test item was dissolved in the appropriate volume of saline solution (NaCl, 0.9% w v^−1) to achieve the dose volume of 5 ml kg^−1. The resulting solution was then administered via a gavage fed down the esophagus to enable the formulation to be dispensed directly into the stomach.
Radioactivity was extracted from the selected feces and urine homogenate pools with appropriate solvents based on methodology developed at Quotient (Rushden) Ltd. and analyzed by quantitative radioactivity analysis (QRA).

CXCL5 = CXCL5 ELISA in bladder tissue; format: in vivo, rat; details: preventive: 20 mg kg^−1 + 7 mg kg^−1 twice daily for 7 days, CYP rats
Protocol: (§1) Animals pre-treated with the vehicle or a single high oral dose of DF2755A (20 mg kg^−1; 12 h before the first CYP administration) followed by repeated lower doses administration (7 mg kg^−1 twice daily for 7 days) during IC development were deeply anesthetized with isoflurane (4%) and then killed.
After killing, rat abdomen was opened through a midline incision, and bladder and proximal urethra were exposed. A catheter was inserted into the bladder through the urethra and a loose ligature was placed around the neck of the urinary bladder. Bladder was inflated with saline via the catheter to slightly distend the bladder and ligature was tightened to maintain proper distension. Bladder was then excised cutting above the insertion point of ureters, and therefore the bladder neck was not included into the bladder sample. […] One piece (B1) was placed in Eppendorf, then snap-frozen in liquid nitrogen, and stored at −80°C until quantification using ELISA assay. […] For the microscopic observations of bladder inflammation, the following parameters were analyzed: bladder edema in scores (n = 10/group), bladder hemorrhage in scores (n = 10/group), urothelial loss in scores (n = 10/group), and total inflammatory score, which was calculated by adding all the individual lesion scores (n = 10/group). […]

TRPV1 [3] = experiment: TRPV1 Western blotting in bladder homogenates; format: in vivo, rat; details: preventive: 20 mg kg^−1 + 7 mg kg^−1 twice daily for 7 days; Western blot, CYP rats
Protocol: as §1
After killing, rat abdomen was opened through a midline incision, and bladder and proximal urethra were exposed. A catheter was inserted into the bladder through the urethra and a loose ligature was placed around the neck of the urinary bladder. Bladder was inflated with saline via the catheter to slightly distend the bladder and ligature was tightened to maintain proper distension. […] One piece (B1) was placed in Eppendorf, then snap-frozen in liquid nitrogen, and stored at −80°C until quantification using ELISA assay. […] For the microscopic observations of bladder inflammation, the following parameters were analyzed: bladder edema in scores (n = 10/group), bladder hemorrhage in scores (n = 10/group), urothelial loss in scores (n = 10/group), and total inflammatory score, which was calculated by adding all the individual lesion scores (n = 10/group).
Protease and phosphatase inhibitors were added to the bladder homogenates extracted. […] The extracted proteins were quantified using BCA assay (Thermo, United States). […]

urinary bladder = format: in vivo; details: preventive: 20 mg kg^−1 + 7 mg kg^−1 twice daily for 7 days; CYP rats
Protocol: CYP was administered to the animals by the intraperitoneal (i.p.) route (5 ml kg^−1) at the dosage of 75 mg kg^−1 for three times every third day to elicit chronic bladder irritation, as previously described ([Vizzard et al., 1996]).
as §1
After killing, rat abdomen was opened through a midline incision, and bladder and proximal urethra were exposed. A catheter was inserted into the bladder through the urethra and a loose ligature was placed around the neck of the urinary bladder. Bladder was inflated with saline via the catheter to slightly distend the bladder and ligature was tightened to maintain proper distension. Bladder was then excised cutting above the insertion point of ureters, and therefore the bladder neck was not included into the bladder sample. Bladders were opened using scissors and, after gross macroscopic evaluation and weighing, each bladder was cut into two equal pieces (named B1 and B2) and weighted again individually. One piece (B1) was placed in Eppendorf, then snap-frozen in liquid nitrogen, and stored at −80°C until quantification using ELISA assay. The second piece (B2) was placed in 10% formalin and stored at room temperature. Then the same samples were placed in 70% ethanol, then processed in paraffin blocks, and then trimmed according to the longitudinal plane to ensure the correct analysis of all the bladder sample. Sections were stained with hematoxylin and eosin (HE), and slides were then digitalized using a Pathscan® Touch scanner in the bright field mode with a ×20 objective. For the microscopic observations of bladder inflammation, the following parameters were analyzed: bladder edema in scores (n = 10/group), bladder hemorrhage in scores (n = 10/group), urothelial loss in scores (n = 10/group), and total inflammatory score, which was calculated by adding all the individual lesion scores (n = 10/group).

C[C@H](C(=O)[O-])c1ccc(Nc2nc(C(F)(F)F)cs2)cc1.[Na+] [DF2755A, sodium (2S)-2-(4-{[4-(trifluoromethyl)-1,3-thiazol-2-yl]amino}phenyl)propanoate]
TRPV1 protein level in CYP-exposed cells (TRPV1 [1]): restored to control expression | IC50 (CXCR1): 4.2 nM | overall mean recovery of radioactivity ([2]; 0 to 48 h post-dose): 97.67 % of dose | Mean recovery of radioactivity, feces ([2]; 0–168 h): 77.10 % dose | Mean recovery of radioactivity, total ([2]; 0–168 h): 102.06 % dose | Mean recovery of radioactivity, urine ([2]; 0–168 h): 24.13 % dose | bladder tissue expression of CXCL5 versus vehicle-treated rats (CXCL5): strongly inhibited | TRPV1 bladder expression versus vehicle-treated animals (TRPV1 [3]): reduced | histological evaluated parameters (edema, hemorrhage, urothelial loss, total inflammatory score), DF2755A- versus vehicle-treated rats (urinary bladder): no significant difference
